In patent US10369131B2, “Ultrapure tetrahydrocannabinol-11-oic acids” (Corbus Pharmaceuticals, Inc., priority 2013, dated 2019):

Tests used:
[1] = test system: neuropathic pain patients; conditions: man, cited from earlier work
[2] = test system: tumor growth; conditions: doses in the anti-inflammatory range, compared with THC; cited from earlier work
[3] = rat, at peak pharmacodynamic time points; cited from earlier work
[4] = molecular target: CB1 receptor (Homo sapiens, UniProt P21554); conditions: earlier ajulemic acid synthesis products, literature; cited from earlier work
CB1 receptor, sequence (P21554 whole entry): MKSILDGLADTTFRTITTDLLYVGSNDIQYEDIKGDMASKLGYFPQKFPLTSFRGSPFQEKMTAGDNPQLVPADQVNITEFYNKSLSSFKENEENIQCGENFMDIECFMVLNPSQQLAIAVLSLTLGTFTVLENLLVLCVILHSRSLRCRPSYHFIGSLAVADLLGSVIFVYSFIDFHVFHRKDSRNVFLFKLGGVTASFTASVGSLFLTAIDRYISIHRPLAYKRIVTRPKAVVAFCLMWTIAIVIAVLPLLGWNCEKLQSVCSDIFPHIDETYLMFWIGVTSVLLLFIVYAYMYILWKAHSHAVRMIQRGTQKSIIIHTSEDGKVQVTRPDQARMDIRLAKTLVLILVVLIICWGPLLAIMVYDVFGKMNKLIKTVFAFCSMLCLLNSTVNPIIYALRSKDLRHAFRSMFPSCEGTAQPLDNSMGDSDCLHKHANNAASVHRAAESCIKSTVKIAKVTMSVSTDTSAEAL

[5] = test system: female CD-1 mice; conditions: oral; AJA reported in U.S. Pat. No. 5,338,753; cited from earlier work
[6] = test system: HL-60 cells; test: PGJ synthesis in HL-60 cells (ELISA); type: cell-based
Description: The CB2 antagonist SR144528 reduced ultrapure AJA-induced PGJ synthesis in HL60 immune system cells at low concentrations (squares). […] DMSO control (open circles). Treatments of cells was carried out in 48 well plates with 20,000 cells/500 μl RPMI/FCS media/well. Cells were incubated for 20 hrs at 37° C. and 5% CO2. Media was changed to 500 μl of serum free RPMI and TNFα (10 nM) added. […] N=4.

[7] = test system: female CD-1 mice; test: Ring immobility (catalepsy) test
Description: The cataleptic response was measured using the ring test described by Pertwee (Pertwee R G, The Ring Test. A Quantitative Method of Assessing the Cataleptic Effect of Cannabis in Mice, Br. J. Pharmacol. 46:753-763 (1972)). Mice were placed on a horizontal wire ring 5.5 cm in diameter attached to a 16 cm vertical rod. The hind paws and fore paws were placed at opposite sides of the ring. The ambient temperature was maintained at 30° C. and the environment was free of auditory stimuli and bright lights. The response was calculated as the fraction of time the mouse was immobile over a five (5) minute test period.
A dose response was conducted for ultrapure AJA to oral doses of 0.05 to 56 mg/kg.
(§1) Compounds were administered at a volume of […] via oral gavage.
(§2) Female CD-1 mice (20-25 g), obtained from Charles River (Raleigh, N.C.), were used for assessment in hot plate nociception, rectal temperature, and ring immobility assays. Separate mice were used for testing each dose of each compound in this battery of procedures. The mice had free access to food and water when in their home cages. All animals were kept in a temperature-controlled (20-22° C.) environment with a 12-hour light-dark cycle (lights on at 7 a.m.).
Each mouse was tested in a battery of three tests, in which cannabinoid CB1 agonists produce in vivo effects in mice (Martin et al., 1991): antinociception (hot plate assay), decreased rectal temperature and ring immobility. Prior to administration of the test compound, rectal temperature and baseline latency in the hot plate test were measured in the mice. The latter procedure involved placing the mouse on a heated surface (mouse cold/hot plate analgesia apparatus; Stoelting, Wood Dale, Ill.) at a setting of 55° C. Time until the mouse lifts or licks a paw was measured, whereupon the mouse was removed from the apparatus. […] After measurement of baseline temperature and hot plate latency, mice were administered vehicle or drug via oral gavage. […] Subsequently, the mice were placed on a 5.5 cm ring attached at a height of 16 cm to a ring stand, and the amount of time the animals remained motionless during a 5 min period was recorded. In addition, the number of times the mouse fell or jumped off the ring was recorded. If the mouse fell off the ring more than 5 times, the test was terminated.
Rectal temperature values were expressed as the difference between control temperature (before injection) and temperature following drug administration (Δ° C.). Antinociception was expressed as the percent maximum possible effect (MPE) using a 30-s maximum test latency as follows: [(test−control)/(30−control)]×100. During assessment for catalepsy, the total amount of time (in seconds) that the mouse remained motionless on the ring apparatus (except for breathing and whisker movement) was measured and was used as an indication of catalepsy-like behavior. This value was divided by 300 s and multiplied by 100 to obtain a percent immobility. If the mouse fell off the ring more than 5 times, the test was terminated and ring immobility data for the mouse were not included in analysis. Separate between-subjects ANOVAs were used to analyze each measure. Significant differences from control (vehicle) were further analyzed with Tukey post hoc tests (α=0.05) as necessary.

[8] = test system: female CD-1 mice; test: Mouse hot plate test for antinociception; type: in vivo; conditions: 60 min after administration
[9] = test system: female CD-1 mice; test: Rectal temperature (mouse hypothermia assay)
Description: as §1, §2
Each mouse was tested in a battery of three tests, in which cannabinoid CB1 agonists produce in vivo effects in mice (Martin et al., 1991): antinociception (hot plate assay), decreased rectal temperature and ring immobility. Prior to administration of the test compound, rectal temperature and baseline latency in the hot plate test were measured in the mice. The latter procedure involved placing the mouse on a heated surface (mouse cold/hot plate analgesia apparatus; Stoelting, Wood Dale, Ill.) at a setting of 55° C. Time until the mouse lifts or licks a paw was measured, whereupon the mouse was removed from the apparatus. […] Subsequently, the mice were placed on a 5.5 cm ring attached at a height of 16 cm to a ring stand, and the amount of time the animals remained motionless during a 5 min period was recorded. In addition, the number of times the mouse fell or jumped off the ring was recorded. […]
Rectal temperature values were expressed as the difference between control temperature (before injection) and temperature following drug administration (Δ° C.). Antinociception was expressed as the percent maximum possible effect (MPE) using a 30-s maximum test latency as follows: [(test−control)/(30−control)]×100. During assessment for catalepsy, the total amount of time (in seconds) that the mouse remained motionless on the ring apparatus (except for breathing and whisker movement) was measured and was used as an indication of catalepsy-like behavior. […]

[10] = oral 30 and 100 mg/kg (both doses), vs vehicle, p<0.05

For `CCCCCCC(C)(C)c1cc(O)c2c(c1)OC(C)(C)[C@@H]1CC=C(C(=O)O)C[C@@H]21` [AJA, (6aR,10aR)-3-(1′,1′-dimethylheptyl)-Δ8-tetrahydro-cannabinol-9-carboxylic acid], the “cannabis-like psychotropic adverse events” value ([1]; neuropathic pain patients) is listed as “absence”, the “pain scores in neuropathic pain patients” value [1] is listed as “reduce pain scores” and the “inhibition of tumor growth” value [2] is listed as “small but significant inhibition of tumor growth greater than that produced by THC”. For the same compound, the “brain levels relative to those seen in the plasma” value [3] was 25-30%.
In the case of `CCCCCCC(C)(C)c1cc(O)c2c(c1)OC(C)(C)[C@@H]1CC=C(C(=O)O)C[C@@H]21` [HU-239], the “ratio of CB1/CB2 binding” value [4] is listed as 0.19 and the “doses at which active in the mouse hot plate assay” value [5] is listed as < 0.5 mg/kg.
With `Cc1c(C(=O)NN2CCCCC2)nn(-c2ccc(Cl)cc2Cl)c1-c1ccc(Cl)cc1` [SR141716] the “effect of CB1 antagonist on ultrapure AJA-induced PGJ synthesis” value ([6]; antagonist 10 μM, 2 hrs) was “much smaller effect”.
For `COc1ccc2c(c1)c(CC(=O)O)c(C)n2C(=O)c1ccc(Cl)cc1` [indomethacin, reference compound], the ring immobility ([7]; 30 mg/kg oral) was “did not significantly affect”, the “antinociception in the hot plate test (% MPE)” value ([8]; 30 mg/kg oral) was “did not significantly affect” and the rectal temperature ([9]; 30 mg/kg oral) was “did not significantly affect”.
For `CCCCCc1cc(O)c2c(c1)OC(C)(C)[C@@H]1CCC(C)=C[C@@H]21` [Δ9-THC, reference compound], the ring immobility [7, 10] was “produced significant”, the “antinociception in the hot plate test (% MPE)” value ([8]; oral 100 mg/kg only, vs vehicle, p<0.05) was “produced significant antinociception” and the “hypothermia (rectal temperature)” value [9, 10] was “produced significant”.
For SR144528, the “effect of CB2 antagonist on ultrapure AJA-induced PGJ synthesis” value [6] was “reduced”.
